Reference: US20220177538A1, “CO-AGONISTS AT GLP-1 AND GIP RECEPTORS SUITABLE FOR ORAL DELIVERY” (Novo Nordisk A/S, priority 2020, published 2022)
Where two headings read alike, the source gives them in different places. Starred links: 1 amine or outer side, 2 acyl side, 3 side chain; linkers in the order of their positions; H or OH if unused. Non-standard residues stand in square brackets, D forms with d. Residues, ends and D or L forms follow the SMILES beside them. Groups on a side chain read outwards from the residue. *: point of attachment. C20 diacid = O=C(O)CCCCCCCCCCCCCCCCCCC(=O)*; C18 diacid = O=C(O)CCCCCCCCCCCCCCCCC(=O)*; γGlu = O=C(O)[C@H](CCC(=O)[*:2])N[*:1]; εLys = N[C@@H](CCCCN[*:1])C(=O)[*:2]; Aib = CC(C)(N)C(=O)O

Tests used:
[1] = Pharmacokinetic study in dogs after oral dosing of tablets with SNAC; type: in vivo, Beagle dogs; conditions: for half-life / Tmax: male
Summary of the method: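 Male beagle dogs (9-17 kg), fasted, received a single oral tablet with 100-300 mg SNAC and 3-4 mg test substance, groups of 6-8.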

[2] = biological target: human GLP-1 receptor (Homo sapiens, UniProt P43220); assay: In vitro functional potency, CRE luciferase reporter, whole BHK cells (hGLP-1R); type: cell-based; parameters: expressed in transfected cells; host or cells: BHK (parent line BHKTS13), clone BHK CRE luc2P hGLP-1R; conditions: BHK CRE luc2P hGLP-1R cells
Summary of the method: (§1)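 BHK CRE luc2P cells stably expressing hGIPR or hGLP-1R were seeded at 5000 cells/well overnight. They were treated 3 h at 37° C with a 12-point, 3.5-fold compound series in buffer with or without HSA, and luciferase luminescence was read. Values come from log(agonist)-response regression, averaging at least two replicates.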

[3] = biological target: T1, human GIP receptor (Homo sapiens, UniProt P48546); assay: In vitro functional potency, CRE luciferase reporter, whole BHK cells (hGIPR); type: cell-based; conditions: BHK CRE luc2P hGIPR cells
T1 construct: expressed in transfected cells; host or cells: BHK (parent line BHKTS13), clone BHK CRE luc2P hGIPR
T1 sequence (P48546 22-466): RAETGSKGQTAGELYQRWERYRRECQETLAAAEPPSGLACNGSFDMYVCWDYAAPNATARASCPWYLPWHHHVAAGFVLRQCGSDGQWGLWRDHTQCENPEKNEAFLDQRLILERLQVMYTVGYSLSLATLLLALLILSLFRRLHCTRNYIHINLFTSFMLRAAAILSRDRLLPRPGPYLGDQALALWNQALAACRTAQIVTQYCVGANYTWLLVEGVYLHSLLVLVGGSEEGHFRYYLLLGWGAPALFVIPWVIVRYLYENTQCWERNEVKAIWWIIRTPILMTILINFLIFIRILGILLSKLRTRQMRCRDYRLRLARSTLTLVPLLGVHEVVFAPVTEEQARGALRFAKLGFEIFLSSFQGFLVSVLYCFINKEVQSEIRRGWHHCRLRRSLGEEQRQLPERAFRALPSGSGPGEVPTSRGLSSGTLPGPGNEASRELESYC
Summary of the method: as §1

[4] = oral tablet, SNAC 100 mg, test substance 3 mg, Beagle dogs, arithmetic mean
[5] = 0% HSA, read-out: hGLP-1R, CRE Luc 0% HSA EC50
[6] = hGLP-1R, CRE Luc 1% HSA EC50, 1% HSA
[7] = 0% HSA, read-out: hGIPR, CRE Luc 0% HSA EC50
[8] = hGIPR, CRE Luc 1% HSA EC50, 1% HSA

Sequence of human GLP-1 receptor (P43220 24-463): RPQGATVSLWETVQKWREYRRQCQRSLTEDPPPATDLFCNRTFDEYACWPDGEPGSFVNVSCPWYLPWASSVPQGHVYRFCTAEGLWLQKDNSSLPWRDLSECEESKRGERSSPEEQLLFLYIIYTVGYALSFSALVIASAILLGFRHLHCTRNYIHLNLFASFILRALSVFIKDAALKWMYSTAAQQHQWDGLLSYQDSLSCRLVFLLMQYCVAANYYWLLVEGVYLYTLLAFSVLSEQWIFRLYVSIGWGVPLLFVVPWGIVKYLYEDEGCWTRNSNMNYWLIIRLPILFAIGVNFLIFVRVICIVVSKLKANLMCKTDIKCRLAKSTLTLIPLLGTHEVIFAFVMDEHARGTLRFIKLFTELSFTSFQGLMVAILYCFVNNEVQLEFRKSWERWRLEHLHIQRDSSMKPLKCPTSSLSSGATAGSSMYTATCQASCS

Tmax ([1]; dog, plasma, oral tablet, SNAC 100 mg, test substance 3 mg, Beagle dogs, median, read-out: Tmax) | AUC/Dose [1, 4] | Cmax/Dose [1, 4] | SMILES | half-life ([1]; Beagle, dog, in vivo, po) | EC50 [2, 5] | EC50 [2, 6] | EC50 [3, 7] | EC50 [3, 8] | AUC/Dose ([1]; dog, in vivo, po) | Cmax/Dose ([1]; dog, in vivo, po) | Tmax ([1]; Beagle, dog, in vivo, po)
2 h | 10.8 kg·h/L | 0.21 kg/L | CC[C@H](C)[C@H](NC(=O)[C@H](Cc1ccccc1)NC(=O)[C@H](CCC(=O)O)NC(=O)[C@H](CCCNC(=N)N)NC(=O)[C@H](C)NC(=O)[C@H](C)NC(=O)[C@H](CCC(N)=O)NC(=O)[C@H](CCCCNC(=O)[C@@H](N)CCCCNC(=O)[C@@H](N)CCCCNC(=O)CC[C@H](NC(=O)CCCCCCCCCCCCCCCCC(=O)O)C(=O)O)NC(=O)[C@H](CCC(=O)O)NC(=O)[C@H](CC(C)C)NC(=O)[C@H](CC(C)C)NC(=O)[C@@H](NC(=O)[C@H](CO)NC(=O)[C@H](Cc1ccc(O)cc1)NC(=O)[C@H](CC(=O)O)NC(=O)[C@H](CO)NC(=O)[C@@H](NC(=O)[C@H](Cc1ccccc1)NC(=O)[C@@H](NC(=O)CNC(=O)[C@H](CCC(=O)O)NC(=O)C(C)(C)NC(=O)[C@@H](N)Cc1ccc(O)cc1)[C@@H](C)O)[C@@H](C)O)[C@@H](C)CC)C(=O)N[C@@H](CC(N)=O)C(=O)N[C@@H](Cc1c[nH]c2ccccc12)C(=O)N[C@@H](CC(C)C)C(=O)N[C@@H](CC(C)C)C(=O)N[C@@H](C)C(=O)NCC(=O)NCC(=O)N1CCC[C@H]1C(=O)N[C@@H](CO)C(=O)N[C@@H](CO)C(=O)O [Compound 20] (H-Y[Aib]EGTFTSDYSILLEK([εLys-εLys-γGlu-C18 diacid])QAAREFINWLLAGGPSS-OH) | 56 h | 0.0042 nM | 0.256 nM | 0.0071 nM | 0.247 nM |  |  | 
 |  |  | CC[C@H](C)[C@H](NC(=O)[C@H](Cc1ccccc1)NC(=O)[C@H](CCC(=O)O)NC(=O)[C@H](CCCNC(=N)N)NC(=O)[C@H](C)NC(=O)[C@H](C)NC(=O)[C@H](CCC(N)=O)NC(=O)[C@H](CCCCNC(=O)[C@@H](N)CCCCNC(=O)[C@@H](N)CCCCNC(=O)CC[C@H](NC(=O)CCCCCCCCCCCCCCCCCCC(=O)O)C(=O)O)NC(=O)[C@H](CCC(=O)O)NC(=O)[C@H](CC(C)C)NC(=O)[C@H](Cc1ccc(O)cc1)NC(=O)[C@@H](NC(=O)[C@H](CO)NC(=O)[C@H](Cc1ccc(O)cc1)NC(=O)[C@H](CC(=O)O)NC(=O)[C@H](CO)NC(=O)[C@@H](NC(=O)[C@H](Cc1ccccc1)NC(=O)[C@@H](NC(=O)CNC(=O)[C@H](CCC(=O)O)NC(=O)C(C)(C)NC(=O)[C@@H](N)Cc1ccc(O)cc1)[C@@H](C)O)[C@@H](C)O)[C@@H](C)CC)C(=O)N[C@@H](CC(N)=O)C(=O)N[C@@H](Cc1c[nH]c2ccccc12)C(=O)N[C@@H](CC(C)C)C(=O)N[C@@H](CC(C)C)C(=O)N[C@@H](C)C(=O)NCC(=O)NCC(=O)N1CCC[C@H]1C(=O)N[C@@H](CO)C(=O)N[C@@H](CO)C(=O)NCC(=O)N[C@@H](C)C(=O)N1CCC[C@H]1C(=O)N1CCC[C@H]1C(=O)N1CCC[C@H]1C(=O)N[C@@H](CO)C(=O)O [Compound 16] (H-Y[Aib]EGTFTSDYSIYLEK([εLys-εLys-γGlu-C20 diacid])QAAREFINWLLAGGPSSGAPPPS-OH) | 47 h | 0.0031 nM | 0.321 nM | 0.0134 nM | 0.804 nM | 8.6 kg·h/L | 0.21 kg/L | 1.3 h
